Test results reported in patent publication EP3409787A1, “TWO SNPS (SINGLE NUCLEOTIDE POLYMORPHISMS) IN THE SEQUENCE OF THE BETA, BETA-CAROTENE 15,15 DIOXYGENASE GENE AND THEIR USE” (DSM IP Assets B.V., priority 2017, dated 2018).

Experiment: Supplementation study: Total Body Stores of vitamin A (TBS) by isotope dilution with [13C10] retinyl acetate
Format: in vivo, human subjects
Conditions: 7 mg beta-carotene daily, 54 days, humans
Description: The person skilled in art knows how to determine the Total Body Stores (TBS) of vitamin A, e.g. by determining the [^13C10] retinyl acetate dose after a sufficient period (circa 3 days) of isotope dilution with endogenous pools.
The study underlying the present invention analyzed inter alia the Total Body Store of vitamin A (TBS) using an isotope dilution method and [^13C10] retinol concentrations, and determined the effect of the rs7501331 or rs6564851 SNPs on BCO1 enzyme activity. To enable the analysis of SNPs on TBS, stepwise multiple regression was performed using the Akaike Information Criterion (AIC) to evaluate the covariates dietary intake of retinol, provitamin A carotenoids and retinol equivalents, age, BMI and body fat. The most significant covariant used for the selective model to analyze the SNP and TBS interaction was dietary retinol equivalent, with an AIC of 276.5. Thus, the final model tested the effects of the rs7501331 or rs6564851 SNPs on TBS at both baseline and after 54 days of supplementation accounting for dietary retinol equivalent as the only co-variant in the analysis.
The study was a randomized, single blind supplementation design combined with retrospective genotyping to test three beta-carotene formulations (7mg β-carotene/day) for a period of 8 weeks. […] On day 1 and 57 of each supplementation period, a fasting blood sample was taken before the oral administration of 2 mg of [^13C10] β-carotene and 0.4 mg of [^13C10] retinyl acetate as part of a test breakfast meal. Further blood samples were taken at 2, 4, 6, 8, 10 and 12 hours post-dose. For the first formulation (BetaTab 20%S) single fasting blood samples were also taken at day 2, 3, 4, 8, 10, 22, 36 and day 57 of the 8 week supplementation period followed by fasting blood samples at day 58, 59, 60, 64, 66, 78, 92 and 113 during the wash-out period. […] However, overall body retinol homeostasis was determined using supplement 1 (BetaTab 20% S).

## CC1=C(/C=C/C(C)=C/C=C/C(C)=C/C=C/C=C(C)/C=C/C=C(C)/C=C/C2=C(C)CCCC2(C)C)C(C)(C)CCC1 [beta-carotene]
  effect of rs7501331 (A379V) SNP / dominant T variant on TBS values after supplementation: can overcome
  effect of the rs6564851 SNPs on TBS after supplementation: does not disappear
Listed as ß-carotene
  effect of rs7501331 (A379V) SNP / dominant T variant on TBS values after supplementation: disappeared
